From ChEMBL document CHEMBL1201862, “PubChem BioAssay data set” (2004)
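Dose response: 5 concentrations. Exposure: 48 h. Format: 96-well plates. Endpoint: linear interpolation; highest concentration if not reached. Abbreviation: GI50, concentration required for 50% inhibition of growth.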 Activity calls are given as the source filed them. Cut-off read from the data, not from the text of the source: active = GI50 up to about 1.1 µM and inactive = higher.

Columns and labels:
Experiment in all cases: growth of human tumour cells (NCI), 48 h
[1] = test system: IGROV-1
[2] = test system: HCT-116
[3] = test system: K562
[4] = test system: HCT-15
[5] = test system: SNB-19
[6] = test system: NCI-H226
[7] = test system: SK-MEL-5
[8] = test system: A549
[9] = test system: UO-31
[10] = test system: MCF7
[11] = test system: OVCAR-4
[12] = test system: BT-549
[13] = test system: SK-MEL-28
[14] = test system: MDA-N
[15] = test system: MOLT-4
[16] = test system: KM12
[17] = test system: SF-295
[18] = test system: SW-620
[19] = test system: Hs-578T

Structure (SMILES) | GI50 [1] | GI50 [2] | GI50 [3] | GI50 [4] | GI50 [5] | GI50 [6] | GI50 [7] | GI50 [8] | GI50 [9] | GI50 [10] | GI50 [11] | GI50 [12] | GI50 [13] | GI50 [14] | GI50 [15] | GI50 [16] | GI50 [17] | GI50 [18] | GI50 [19]
CN1CCN(CC(=O)N2c3ccccc3Sc3cc4ccccc4cc32)CC1 | 16.5 µM (inactive) | 10.1 µM (inactive) | 15.9 µM (inactive) | 16.7 µM | 18.4 µM (inactive) | 22.7 µM (inactive) | 17.5 µM (inactive) | 15.3 µM (inactive) | 13.2 µM (inactive) | 15.8 µM (inactive) | 15.5 µM (inactive) | 15.1 µM (inactive) | 14.6 µM (inactive) | 10 µM (inactive) | 12.2 µM (inactive) | 17 µM (inactive) | 14.7 µM (inactive) | 20.4 µM (inactive) | 11 µM (inactive)
CC(C)(C)c1cc(C(C)(C)C)c2sc(=S)oc2c1O | 9.98 µM (inactive) | 6.25 µM (inactive) | 15 µM (inactive) | 4.98 µM | 12.7 µM (inactive) | 15.2 µM (inactive) | 8.17 µM (inactive) | 6.55 µM (inactive) | 4.12 µM (inactive) | 6.79 µM (inactive) | 11.7 µM (inactive) | 8.51 µM (inactive) | 8.09 µM (inactive) | 6.01 µM (inactive) | 5.2 µM (inactive) | 4.79 µM (inactive) | 10.5 µM (inactive) | 9.1 µM (inactive) | 4.43 µM (inactive)
CCCCCC(O)(CCCCC)CCCCCCCCC1=C(O)C(=O)c2ccccc2C1=O | 6.08 µM (inactive) | 3.83 µM (inactive) | 3.08 µM (inactive) | 4.18 µM | 5.75 µM (inactive) | 14 µM (inactive) | 3.62 µM (inactive) | 9.64 µM (inactive) | 10.3 µM (inactive) | 9.62 µM (inactive) | 9.79 µM (inactive) | 14.7 µM (inactive) | 11.7 µM (inactive) | 10.5 µM (inactive) | 3.33 µM (inactive) | 5.62 µM (inactive) | 7.91 µM (inactive) | 7.46 µM (inactive) | 16.1 µM (inactive)
C[n+]1cccc(/C=C/c2ccc3cccc(O)c3n2)c1 | > 100 µM (inactive) | > 100 µM (inactive) | 50.9 µM (inactive) | > 100 µM | 42 µM (inactive) | > 100 µM (inactive) | 37.1 µM (inactive) | 39.9 µM (inactive) | > 100 µM (inactive) | 72.4 µM (inactive) | > 100 µM (inactive) | 84.9 µM (inactive) | > 100 µM (inactive) | > 100 µM (inactive) | 54.5 µM (inactive) | > 100 µM (inactive) | > 100 µM (inactive) | > 100 µM (inactive) | 65.5 µM (inactive)
NS(=O)(=O)c1ccc(/N=N/c2c(O)c(C(=O)O)cc3ccccc23)cc1 | > 100 µM (inactive) | > 100 µM (inactive) | > 94.4 µM (inactive) | > 100 µM | 43.1 µM (inactive) | > 100 µM (inactive) | 53.8 µM (inactive) | > 100 µM (inactive) | > 100 µM (inactive) | > 90.2 µM (inactive) | > 100 µM (inactive) | > 100 µM (inactive) | > 93.5 µM (inactive) | 59.2 µM (inactive) | > 100 µM (inactive) | > 75.7 µM (inactive) | > 100 µM (inactive) | > 92.3 µM (inactive) | > 100 µM (inactive)
Cc1ccnc2[nH]c(-c3ccccc3)cc(=O)c12 | 0.0726 µM (active) | 0.00396 µM (active) | 0.00281 µM (active) | 0.00485 µM | 0.0233 µM (active) | 0.0246 µM (active) | 0.00387 µM (active) | 0.0153 µM (active) | 0.0348 µM (active) | 0.0398 µM (active) | 68.7 µM (inactive) | 19 µM (inactive) | 0.01 µM (active) | 0.0011 µM (active) | 0.0132 µM (active) | 0.00705 µM (active) | 0.00309 µM (active) | 0.00421 µM (active) | 0.0114 µM (active)
Cc1nc(C)c(N2CCN(S(=O)(=O)N(Cc3ccccc3)Cc3ccccc3)CC2)c(O)n1 | 16.8 µM (inactive) | 53 µM (inactive) | > 100 µM (inactive) | > 100 µM | 8.91 µM (inactive) | 0.279 µM (active) | > 100 µM (inactive) | > 100 µM (inactive) | > 100 µM (inactive) | > 43.6 µM (inactive) | 0.836 µM (active) | > 57.4 µM (inactive) | > 100 µM (inactive) | > 100 µM (inactive) | > 100 µM (inactive) | > 100 µM (inactive) | 18.7 µM (inactive) | > 100 µM (inactive) | 3.4 µM (inactive)
Clc1ccc(-c2cc(-c3nc4ccccc4[nH]3)no2)cc1 | 22.6 µM (inactive) | 16.6 µM (inactive) | 19.8 µM (inactive) | 19.6 µM | 19.6 µM (inactive) | 27.4 µM (inactive) | 17.7 µM (inactive) | 19.1 µM (inactive) | 19 µM (inactive) | 15 µM (inactive) | 17.7 µM (inactive) | 21.6 µM (inactive) | 19.3 µM (inactive) | 17.5 µM (inactive) | 16.1 µM (inactive) | 20.8 µM (inactive) | 17.3 µM (inactive) | 22.4 µM (inactive) | 29.6 µM (inactive)
Clc1nncc2sc(-c3ccccc3)nc12 | 8.67 µM (inactive) | 16.9 µM (inactive) | 7.71 µM (inactive) | 7 µM | 17.9 µM (inactive) | 26 µM (inactive) | 15.6 µM (inactive) | 53.8 µM (inactive) | 19.9 µM (inactive) | 25.5 µM (inactive) | 18.4 µM (inactive) | 13.9 µM (inactive) | 12.8 µM (inactive) | 21.6 µM (inactive) | 28.8 µM (inactive) | 28.9 µM (inactive) | 27.1 µM (inactive) | 21 µM (inactive) | 20.6 µM (inactive)
COc1cccc(/C=N/n2c(Cc3ccc(Cl)cc3)n[nH]c2=O)c1 | 33.5 µM (inactive) | 47.8 µM (inactive) | > 100 µM (inactive) | 99.3 µM | 27.3 µM (inactive) | > 28.2 µM (inactive) | > 100 µM (inactive) | 58.6 µM (inactive) | > 73.5 µM (inactive) | 29.9 µM (inactive) | > 92.9 µM (inactive) | 26.1 µM (inactive) | > 100 µM (inactive) | > 100 µM (inactive) | > 100 µM (inactive) | > 100 µM (inactive) | 17.1 µM (inactive) | > 100 µM (inactive) | 23.4 µM (inactive)
COc1ccc(CNC2=Nc3ccncc3S(=O)(=O)N2c2ccccc2)cc1 | 39.9 µM (inactive) | 36.5 µM (inactive) | 29 µM (inactive) | 34.3 µM | > 100 µM (inactive) | 17 µM (inactive) | 19 µM (inactive) | 40.6 µM (inactive) | 45.7 µM (inactive) | 38.5 µM (inactive) | 37.4 µM (inactive) | 23.2 µM (inactive) | 21.6 µM (inactive) | 29.9 µM (inactive) | 19 µM (inactive) | 35 µM (inactive) | 65 µM (inactive) | 33 µM (inactive) | 33.8 µM (inactive)
CCOC(=O)C(=CNc1ccc(NC2=NCC(C)S2)cc1)C(=O)OCC (stereo not given) | 26.8 µM (inactive) | 35.2 µM (inactive) | 0.382 µM (active) | 15.2 µM | 37.8 µM (inactive) | 42.4 µM (inactive) | 16.5 µM (inactive) | 35.6 µM (inactive) | 17.8 µM (inactive) | 30.3 µM (inactive) | 9.62 µM (inactive) | 15.2 µM (inactive) | 20.8 µM (inactive) | 25.7 µM (inactive) | 3.15 µM (inactive) | 16.6 µM (inactive) | 29.6 µM (inactive) | 31 µM (inactive) | 25.5 µM (inactive)
O=C(O)/C=C/c1ccc(OS(=O)(=O)O)cc1 | > 100 µM (inactive) | > 100 µM (inactive) | > 100 µM (inactive) | > 100 µM | > 100 µM (inactive) | > 100 µM (inactive) | > 100 µM (inactive) | > 100 µM (inactive) | > 100 µM (inactive) | > 100 µM (inactive) | > 100 µM (inactive) | > 100 µM (inactive) | > 100 µM (inactive) | > 100 µM (inactive) | > 100 µM (inactive) | > 100 µM (inactive) | > 100 µM (inactive) | > 100 µM (inactive) | > 100 µM (inactive)
CC(=O)[C@]1(O)Cc2c(O)c3c(c(O)c2C(OC2OC(C)C(O)C(O)C2F)C1)C(=O)c1ccccc1C3=O (stereo not given in full) | 0.0419 µM (active) | 0.0565 µM (active) | 0.083 µM (active) | 0.0516 µM | < 0.0199 µM (active) | 0.0265 µM (active) | 0.0516 µM (active) | 0.019 µM (active) | < 0.01 µM (active) | < 0.01 µM (active) | 0.914 µM (active) | 0.358 µM (active) | 0.547 µM (active) | 0.475 µM (active) | < 0.01 µM (active) | 0.158 µM (active) | < 0.014 µM (active) | 0.0796 µM (active) | 0.33 µM (active)
O=[N+]([O-])O [NITRIC ACID] | > 100 µM (inactive) | > 100 µM (inactive) | > 100 µM (inactive) | > 100 µM | > 100 µM (inactive) | > 100 µM (inactive) | > 100 µM (inactive) | > 100 µM (inactive) | > 100 µM (inactive) | > 100 µM (inactive) | > 100 µM (inactive) | > 100 µM (inactive) | > 100 µM (inactive) | > 100 µM (inactive) | > 100 µM (inactive) | > 100 µM (inactive) | > 100 µM (inactive) | > 100 µM (inactive) | > 100 µM (inactive)
